Test results taken from patent US20230416248A1, “COMPOUNDS AND USES THEREOF” (Foghorn Therapeutics Inc., priority 2020, published 2023).
Where two headings read alike, the source gives them in different places.

Experiments:
BRG-1 = molecular target: T1, BRG-1 (Homo sapiens, UniProt P51532); assay: ATPase catalytic activity of BRG-1, ADP-Glo in vitro biochemical assay; settings: 30 nM BRG-1, 400 μM ATP, read-out: BRG1 IC50
T1 construct: made in house; host or cells: High Five insect cells
Summary of the method: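 Biochemical ADP-Glo assay, BRG-1. Post-reaction: ATP depletion reagent, 40 min RT; ADP→ATP conversion/detection reagent, 60 min RT; luminescence read on plate luminometer.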

BRM = molecular target: T2, BRM (Homo sapiens, UniProt P51531); assay: ATPase catalytic activity of BRM, ADP-Glo in vitro biochemical assay; settings: for IC50: 30 nM BRM, 400 μM ATP; for Ratio* (BRG1 IC50 (μM) divided by BRM IC50 (μM)): selectivity ratio BRG1 IC50 / BRM IC50
T2 construct: made in house; host or cells: High Five insect cells
Summary of the method: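 Recombinant BRM (30 nM) hydrolysed 400 μM ATP with 20 nM salmon sperm DNA in pH 8 Tris buffer containing 20 mM MgCl2, 50 mM NaCl, 0.1% Tween-20 and 1 mM DTT, 1 h at room temperature. ADP formed was quantified by ADP-Glo luminescence.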

[1] = ATPase catalytic activity, ADP-Glo

T1 sequence (P51532 whole entry): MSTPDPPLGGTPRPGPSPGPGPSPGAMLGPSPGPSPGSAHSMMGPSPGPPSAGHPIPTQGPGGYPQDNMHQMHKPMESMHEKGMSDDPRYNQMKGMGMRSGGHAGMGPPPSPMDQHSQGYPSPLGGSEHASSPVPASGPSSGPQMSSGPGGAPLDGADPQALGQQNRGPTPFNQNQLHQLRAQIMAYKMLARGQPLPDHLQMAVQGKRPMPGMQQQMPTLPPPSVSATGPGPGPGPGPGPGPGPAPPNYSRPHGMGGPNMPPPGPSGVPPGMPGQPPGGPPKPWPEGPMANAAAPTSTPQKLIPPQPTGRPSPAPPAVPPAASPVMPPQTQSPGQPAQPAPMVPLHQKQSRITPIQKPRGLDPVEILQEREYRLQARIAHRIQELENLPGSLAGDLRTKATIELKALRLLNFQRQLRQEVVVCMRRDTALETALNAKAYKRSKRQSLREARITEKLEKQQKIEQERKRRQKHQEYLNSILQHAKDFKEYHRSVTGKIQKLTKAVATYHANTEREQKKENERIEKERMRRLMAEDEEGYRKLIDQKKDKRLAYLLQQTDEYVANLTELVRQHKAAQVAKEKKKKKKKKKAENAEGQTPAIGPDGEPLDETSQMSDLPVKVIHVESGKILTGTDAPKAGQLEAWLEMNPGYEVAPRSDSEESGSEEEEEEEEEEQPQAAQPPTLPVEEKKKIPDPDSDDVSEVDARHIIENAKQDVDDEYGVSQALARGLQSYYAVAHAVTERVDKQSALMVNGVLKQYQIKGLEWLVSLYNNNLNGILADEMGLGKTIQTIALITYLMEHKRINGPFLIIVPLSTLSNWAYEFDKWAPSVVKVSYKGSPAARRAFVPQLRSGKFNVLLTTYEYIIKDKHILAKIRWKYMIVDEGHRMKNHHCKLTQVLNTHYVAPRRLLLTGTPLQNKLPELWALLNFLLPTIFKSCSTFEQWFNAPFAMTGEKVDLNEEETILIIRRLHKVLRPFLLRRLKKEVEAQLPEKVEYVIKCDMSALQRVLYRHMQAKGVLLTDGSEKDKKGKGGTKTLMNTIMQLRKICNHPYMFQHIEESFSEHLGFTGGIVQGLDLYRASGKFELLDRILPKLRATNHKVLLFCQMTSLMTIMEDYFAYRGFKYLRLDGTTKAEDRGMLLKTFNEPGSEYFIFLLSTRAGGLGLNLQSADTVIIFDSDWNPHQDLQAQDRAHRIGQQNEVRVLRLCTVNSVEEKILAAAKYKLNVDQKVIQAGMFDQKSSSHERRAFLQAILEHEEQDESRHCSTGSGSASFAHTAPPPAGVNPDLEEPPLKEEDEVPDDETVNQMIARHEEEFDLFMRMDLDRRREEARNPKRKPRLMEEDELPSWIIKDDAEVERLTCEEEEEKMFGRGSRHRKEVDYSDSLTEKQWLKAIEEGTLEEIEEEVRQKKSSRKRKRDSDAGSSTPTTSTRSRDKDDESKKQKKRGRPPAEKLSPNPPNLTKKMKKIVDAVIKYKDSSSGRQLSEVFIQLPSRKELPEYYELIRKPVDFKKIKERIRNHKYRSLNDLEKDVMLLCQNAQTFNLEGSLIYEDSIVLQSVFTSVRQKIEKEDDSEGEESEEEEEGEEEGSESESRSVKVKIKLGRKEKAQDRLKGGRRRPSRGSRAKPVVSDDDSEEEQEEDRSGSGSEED
T2 sequence (P51531 whole entry): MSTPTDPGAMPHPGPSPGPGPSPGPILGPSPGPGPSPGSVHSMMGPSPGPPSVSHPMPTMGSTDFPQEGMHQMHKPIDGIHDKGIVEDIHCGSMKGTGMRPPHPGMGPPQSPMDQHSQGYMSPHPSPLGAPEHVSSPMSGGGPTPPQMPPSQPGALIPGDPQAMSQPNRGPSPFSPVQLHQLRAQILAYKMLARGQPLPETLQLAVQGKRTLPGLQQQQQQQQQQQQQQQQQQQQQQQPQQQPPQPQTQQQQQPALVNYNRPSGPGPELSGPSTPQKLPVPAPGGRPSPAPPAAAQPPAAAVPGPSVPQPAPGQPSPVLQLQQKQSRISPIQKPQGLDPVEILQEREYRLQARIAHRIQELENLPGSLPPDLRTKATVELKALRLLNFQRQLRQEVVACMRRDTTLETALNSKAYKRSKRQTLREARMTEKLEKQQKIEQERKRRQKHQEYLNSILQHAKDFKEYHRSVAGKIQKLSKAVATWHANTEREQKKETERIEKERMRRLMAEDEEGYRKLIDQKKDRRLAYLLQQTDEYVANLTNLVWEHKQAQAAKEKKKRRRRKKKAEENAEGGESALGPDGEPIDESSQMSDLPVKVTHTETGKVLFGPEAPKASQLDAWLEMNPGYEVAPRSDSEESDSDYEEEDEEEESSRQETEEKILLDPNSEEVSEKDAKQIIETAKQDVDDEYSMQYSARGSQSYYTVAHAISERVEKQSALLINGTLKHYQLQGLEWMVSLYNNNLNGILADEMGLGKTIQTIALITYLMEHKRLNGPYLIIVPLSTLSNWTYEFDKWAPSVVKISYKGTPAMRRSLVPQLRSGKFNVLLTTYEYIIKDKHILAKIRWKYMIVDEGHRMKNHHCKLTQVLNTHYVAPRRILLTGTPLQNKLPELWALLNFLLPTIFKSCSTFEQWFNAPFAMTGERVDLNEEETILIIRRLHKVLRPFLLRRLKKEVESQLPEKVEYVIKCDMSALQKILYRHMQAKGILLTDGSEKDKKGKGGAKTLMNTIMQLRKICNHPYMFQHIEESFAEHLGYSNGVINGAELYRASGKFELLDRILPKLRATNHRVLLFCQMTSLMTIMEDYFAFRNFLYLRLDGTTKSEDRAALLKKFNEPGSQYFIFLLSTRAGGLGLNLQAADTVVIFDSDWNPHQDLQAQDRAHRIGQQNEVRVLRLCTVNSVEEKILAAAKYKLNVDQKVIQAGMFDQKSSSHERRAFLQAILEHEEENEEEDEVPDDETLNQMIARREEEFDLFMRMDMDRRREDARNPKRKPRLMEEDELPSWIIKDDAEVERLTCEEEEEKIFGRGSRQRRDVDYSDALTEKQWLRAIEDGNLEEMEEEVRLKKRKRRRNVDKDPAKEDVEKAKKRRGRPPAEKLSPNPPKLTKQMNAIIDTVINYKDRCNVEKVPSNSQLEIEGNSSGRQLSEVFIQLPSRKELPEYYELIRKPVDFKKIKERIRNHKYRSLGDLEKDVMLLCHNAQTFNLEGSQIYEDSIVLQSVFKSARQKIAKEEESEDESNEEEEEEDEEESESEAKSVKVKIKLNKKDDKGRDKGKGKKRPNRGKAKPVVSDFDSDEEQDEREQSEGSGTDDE

| SMILES | IC50 (BRG-1; [1]) | IC50 (BRM; [1]) | Ratio* (BRM; ratio of BRG1 IC50 to BRM IC50) | IC50 (BRG-1; ADP-Glo ATPase assay) | IC50 (BRM; ADP-Glo ATPase assay) | Ratio* (BRG1 IC50 (μM) divided by BRM IC50 (μM)) (BRM) | Ratio* (BRM; ratio BRG1 IC50 / BRM IC50) |
| --- | --- | --- | --- | --- | --- | --- | --- |
| CO[C@@H]1CCS(=O)(=O)c2cc(C(=O)NCc3cc4nc(-c5cccc(N6C[C@@H](C)O[C@@H](C)C6)n5)ccc4cn3)ccc2C1 [Compound 446] | 31.7 nM | 11.2 nM | 2.83 |  |  |  |  |
| C[C@@H]1CN(c2cccc(-c3ccc4cnc(CNC(=O)c5cnc6c(c5)S(=O)(=O)CCCCC6)cc4n3)n2)C[C@H](C)O1 [Compound 451] | 8 nM | 5 nM | 1.60 |  |  |  |  |
| COCCS(=O)(=O)c1cc(C(=O)NCc2cc3nc(-c4cncc(C5CC5)n4)ccc3cn2)ccc1Cl [Compound 238] |  |  |  | 5000 nM | 261 nM | 19.12 |  |
| COc1ncc2c(c1F)N(c1ccc3cnc(CNC(=O)c4ccc5c(c4)S(=O)(=O)CCOC5)cc3n1)CCC2 [Compound 783] |  |  |  | 444 nM | 31.1 nM |  | 14.27 |
| CN[C@H]1CCN(c2cccc(-c3ccc4cnc(CNC(=O)c5ccc6c(c5)S(=O)(=O)CCOC6)cc4n3)n2)CC1(F)F [Compound 67] |  |  |  | 586 nM | 89.4 nM | 6.55 |  |
| C[C@@H]1CN(c2cc(-c3ccc4cnc(CNC(=O)c5ccc6c(c5)S(=O)(=O)CCOC6)cc4n3)ccn2)C[C@H](C)O1 [Compound 153] |  |  |  | 451 nM | 46.3 nM | 9.74 |  |
| COc1c(C)cnc2c1CCCN2c1ccc2cnc(CNC(=O)c3ccc4c(c3)S(=O)(=O)CCOC4)cc2n1 [Compound 629] | 85 nM | 10 nM | 8.49 |  |  |  |  |
| O=C(NCc1cc2nc(N3CCCc4cccnc43)ccc2cn1)c1ccc2c(c1)S(=O)(=O)CCOC2 [Compound 150] |  |  |  | 396 nM | 33.8 nM | 11.71 |  |
| C[C@@H]1CN(c2cccc(-c3ccc4cnc(CNC(=O)c5ccc6c(c5)S(=O)(=O)[C@@H](C)C6)cc4n3)n2)C[C@H](C)O1 [Compound 500] | 3520 nM | 208 nM | 16.91 |  |  |  |  |
| O=C(NCc1cc2nc(N3CCCc4c(OC5CC5)ccnc43)ccc2cn1)c1ccc2c(c1)S(=O)(=O)CCOC2 [Compound 677] | 35.7 nM | 3.8 nM | 9.28 |  |  |  |  |
| Cc1ccc2c(n1)N(c1ccc3cnc(CNC(=O)c4ccc5c(c4)S(=O)(=O)CCOC5)cc3n1)CCC2 [Compound 315] | 340 nM | 18.4 nM | 18.47 |  |  |  |  |
| CN1CCN(c2ccc3cnc(CNC(=O)c4ccc5c(c4)S(=O)(=O)CCOC5)cc3n2)c2ccccc21 [Compound 512] | 217 nM | 28.7 nM | 7.58 |  |  |  |  |

Second part, the molecule after the results:

| IC50 (BRG-1; [1]) | IC50 (BRM; [1]) | Ratio* (BRM; ratio of BRG1 IC50 to BRM IC50) | IC50 (BRG-1; ADP-Glo ATPase assay) | IC50 (BRM; ADP-Glo ATPase assay) | Ratio* (BRG1 IC50 (μM) divided by BRM IC50 (μM)) (BRM) | Ratio* (BRM; ratio BRG1 IC50 / BRM IC50) | SMILES |
| --- | --- | --- | --- | --- | --- | --- | --- |
|  |  |  | 1180 nM | 122 nM | 9.63 |  | O=C(NCc1cc2nc(-c3cccc(OC4CC(F)(F)C4)n3)ccc2cn1)c1ccc2c(c1)S(=O)(=O)CCOC2 [Compound 74] |
|  |  |  | 282 nM | 20.5 nM | 13.77 |  | COC1CN(c2cccc(-c3ccc4cnc(CNC(=O)c5ccc6c(c5)S(=O)(=O)CCOC6)cc4n3)n2)C1 [Compound 228] |
|  |  |  | 224 nM | 18.3 nM | 12.26 |  | COCCCN(C)c1cccc(-c2ccc3cnc(CNC(=O)c4ccc5c(c4)S(=O)(=O)CCOC5)cc3n2)n1 [Compound 125] |
|  |  |  | 4930 nM | 433 nM | 11.38 |  | CO[C@H](C)c1cccc(-c2ccc3cnc(CNC(=O)c4ccc5c(c4)S(=O)(=O)CCOC5)cc3n2)n1 [Compound 68] |
| 235 nM | 11.3 nM | 20.89 |  |  |  |  | Cc1ccc2c(n1)N(c1ccc3cnc(CNC(=O)c4ccc5c(c4)S(=O)(=O)CCOC5)cc3n1)CCO2 [Compound 557] |
| 136 nM | 23.8 nM | 5.71 |  |  |  |  | CC1COc2ccc(-c3ccc4cnc(CNC(=O)c5ccc6c(c5)S(=O)(=O)CCOC6)cc4n3)nc2N1C (stereo not drawn) [Compound 426] |
